From patent US6737383B1, “Herbicidal oxadiazolidines” (priority 1999, dated 2004)

Experiments:
corn = experiment: Test B pre/postemergence corn; assay type: in vivo, Zea mays
Method in brief: (§1)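 Response is a visual 0-to-10 score relative to untreated plants, where 0 means no effect and 10 means complete control, taken twelve to sixteen days after application. Treatments went onto soil at planting and onto foliage of 1- to 4-leaf plants, using a surfactant-containing non-phytotoxic solvent.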

surinam grass = experiment: Test B pre/postemergence surinam grass; assay type: in vivo, Brachiaria decumbens
Method in brief: as §1

bedstraw = experiment: Test B pre/postemergence bedstraw; assay type: in vivo, Galium aparine
Method in brief: as §1

crabgrass = experiment: Test B pre/postemergence crabgrass; assay type: in vivo, Digitaria sanguinalis
Method in brief: as §1

[1] = Postemergence, Rate 125 g/ha, scale 0 to 10, 0 is no effect, 10 is complete control
[2] = Preemergence, Rate 62 g/ha, scale of 0 to 10 where 0 is no effect and 10 is complete control
[3] = Preemergence, Rate 250 g/ha, scale of 0 to 10 where 0 is no effect and 10 is complete control
[4] = Preemergence, Rate 500 g/ha, scale of 0 to 10 where 0 is no effect and 10 is complete control
[5] = Rate 62 g/ha, Postemergence, scale 0 to 10 (0 no effect, 10 complete control)
[6] = Rate 250 g/ha, Postemergence, scale of 0 to 10 where 0 is no effect and 10 is complete control
[7] = Rate 500 g/ha, Postemergence, scale 0 to 10, 0 no effect, 10 complete control
[8] = Postemergence, Rate 250 g/ha, scale 0 to 10, 0 is no effect, 10 is complete control
[9] = Postemergence, Rate 1000 g/ha, scale 0 to 10 (0 no effect, 10 complete control)
[10] = Rate 1000 g/ha, Preemergence, scale 0 to 10 (0 no effect, 10 complete control)
[11] = Preemergence, Rate 62 g/ha, scale 0 to 10 (0 no effect, 10 complete control)
[12] = Rate 62 g/ha, Postemergence, scale of 0 to 10 where 0 is no effect and 10 is complete control
[13] = Postemergence, Rate 500 g/ha, scale of 0 to 10 where 0 is no effect and 10 is complete control
[14] = Preemergence, Rate 125 g/ha, scale of 0 to 10 where 0 is no effect and 10 is complete control
[15] = Preemergence, Rate 250 g/ha, scale 0 to 10, 0 is no effect, 10 is complete control
[16] = Preemergence, Rate 500 g/ha, scale 0 to 10, 0 is no effect, 10 is complete control

CC(C)N(C(=O)n1oc(=O)n(C2CC3CCC2C3)c1=O)c1ccc(F)cc1 (stereo not shown) [Compound 327]
Plant response rating, Corn (corn; [1]): 0
Corn plant response rating (corn; [2]): 0
Corn plant response rating (0 to 10 scale) (corn; Preemergence, Rate 125 g/ha): 0
Corn plant response rating (corn; [3]): 0
Corn plant response rating (corn; [4]): 0
Corn plant response rating (corn; [5]): 0
Plant response rating, Corn (corn; [6]): 0
Plant response rating, Corn (corn; [7]): 0
Plant response rating, B. signalgrass (surinam grass; [1]): 0
B. signalgrass plant response rating (surinam grass; [2]): 0
B. signalgrass plant response rating (0 to 10 scale, 0 is no effect, 10 is complete control) (surinam grass; Preemergence, Rate 125 g/ha): 0
B. signalgrass plant response rating (surinam grass; [3]): 1
B. signalgrass plant response rating (surinam grass; [4]): 7
B. signalgrass plant response rating (surinam grass; [5]): 0
Plant response rating, B. signalgrass (surinam grass; [6]): 0
Plant response rating, B. signalgrass (surinam grass; [7]): 0
Plant response rating, Bedstraw (bedstraw; [1]): 7
Bedstraw plant response rating (bedstraw; [5]): 7
Plant response rating, Bedstraw (bedstraw; [6]): 7
Plant response rating, Crabgrass (crabgrass; [1]): 0
Crabgrass plant response rating (crabgrass; [2]): 0
Crabgrass plant response rating (0 to 10 scale) (crabgrass; Preemergence, Rate 125 g/ha): 2
Crabgrass plant response rating (crabgrass; [3]): 3
Crabgrass plant response rating (crabgrass; [4]): 5
Crabgrass plant response rating (crabgrass; [5]): 0
Plant response rating, Crabgrass (crabgrass; [6]): 0
Plant response rating, Crabgrass (crabgrass; [7]): 1

CCOC(=O)C(C)N(C(=O)n1oc(=O)n(C)c1=O)c1ccc(F)cc1 (stereo not shown) [Compound 365]
Plant response rating, Corn (corn; [1]): 0
Plant response rating, Corn (corn; [8]): 0
Corn plant response rating (corn; [9]): 0
Corn plant response rating (0 to 10 scale) (corn; Preemergence, Rate 125 g/ha): 0
Corn plant response rating (corn; [3]): 0
Corn plant response rating (corn; [4]): 0
Plant response rating, Corn (corn; [7]): 0
Plant response rating, Corn (corn; [10]): 0
Plant response rating, B. signalgrass (surinam grass; [1]): 0
Plant response rating, B. signalgrass (surinam grass; [8]): 0
B. signalgrass plant response rating (surinam grass; [9]): 0
B. signalgrass plant response rating (0 to 10 scale, 0 is no effect, 10 is complete control) (surinam grass; Preemergence, Rate 125 g/ha): 0
B. signalgrass plant response rating (surinam grass; [3]): 0
B. signalgrass plant response rating (surinam grass; [4]): 0
Plant response rating, B. signalgrass (surinam grass; [7]): 0
Plant response rating, B. signalgrass (surinam grass; [10]): 0
Bedstraw plant response rating (0 to 10 scale) (bedstraw; Preemergence, Rate 125 g/ha): 0
Bedstraw plant response rating (bedstraw; [3]): 0
Bedstraw plant response rating (bedstraw; [4]): 0
Plant response rating, Bedstraw (bedstraw; [10]): 0
Plant response rating, Crabgrass (crabgrass; [1]): 0
Plant response rating, Crabgrass (crabgrass; [8]): 0
Crabgrass plant response rating (crabgrass; [9]): 0
Crabgrass plant response rating (0 to 10 scale) (crabgrass; Preemergence, Rate 125 g/ha): 0
Crabgrass plant response rating (crabgrass; [3]): 0
Crabgrass plant response rating (crabgrass; [4]): 4
Plant response rating, Crabgrass (crabgrass; [7]): 0
Plant response rating, Crabgrass (crabgrass; [10]): 8

CC(C)N(C(=O)n1oc(=O)n(C)c1=O)c1ccc(F)cc1F [Compound 368]
Plant response rating, Corn (corn; [1]): 5
Plant response rating, Corn (corn; [8]): 6
Plant response rating, Corn (corn; [11]): 3
Corn plant response rating (0 to 10 scale) (corn; Preemergence, Rate 125 g/ha): 6
Corn plant response rating (corn; [3]): 7
Corn plant response rating (corn; [4]): 10
Corn plant response rating (corn; [12]): 0
Plant response rating, Corn (corn; [7]): 7
Plant response rating, B. signalgrass (surinam grass; [1]): 5
Plant response rating, B. signalgrass (surinam grass; [8]): 6
Plant response rating, B. signalgrass (surinam grass; [11]): 1
B. signalgrass plant response rating (0 to 10 scale, 0 is no effect, 10 is complete control) (surinam grass; Preemergence, Rate 125 g/ha): 6
B. signalgrass plant response rating (surinam grass; [3]): 8
B. signalgrass plant response rating (surinam grass; [4]): 8
B. signalgrass plant response rating (surinam grass; [12]): 0
Plant response rating, B. signalgrass (surinam grass; [7]): 7
Plant response rating, Bedstraw (bedstraw; [8]): 4
Plant response rating, Bedstraw (bedstraw; [11]): 0
Bedstraw plant response rating (0 to 10 scale) (bedstraw; Preemergence, Rate 125 g/ha): 2
Bedstraw plant response rating (bedstraw; [3]): 10
Bedstraw plant response rating (bedstraw; [4]): 10
Bedstraw plant response rating (bedstraw; [12]): 0
Plant response rating, Crabgrass (crabgrass; [1]): 8
Plant response rating, Crabgrass (crabgrass; [8]): 8
Plant response rating, Crabgrass (crabgrass; [11]): 10
Crabgrass plant response rating (0 to 10 scale) (crabgrass; Preemergence, Rate 125 g/ha): 10
Crabgrass plant response rating (crabgrass; [3]): 10
Crabgrass plant response rating (crabgrass; [4]): 10
Crabgrass plant response rating (crabgrass; [12]): 6
Plant response rating, Crabgrass (crabgrass; [7]): 8

CC(C)N(C(=O)n1oc(=O)n(N2C(C)CCCC2C)c1=O)c1ccc(F)cc1F (stereo not shown) [Compound 383]
Plant response rating, Corn (corn; [1]): 0
Plant response rating, Corn (corn; [8]): 0
Plant response rating, Corn (corn; [11]): 0
Corn plant response rating (0 to 10 scale) (corn; Preemergence, Rate 125 g/ha): 0
Corn plant response rating (corn; [3]): 0
Corn plant response rating (corn; [4]): 0
Corn plant response rating (corn; [12]): 0
Plant response rating, Corn (corn; [7]): 0
Plant response rating, B. signalgrass (surinam grass; [1]): 0
Plant response rating, B. signalgrass (surinam grass; [8]): 0
Plant response rating, B. signalgrass (surinam grass; [11]): 0
B. signalgrass plant response rating (0 to 10 scale, 0 is no effect, 10 is complete control) (surinam grass; Preemergence, Rate 125 g/ha): 0
B. signalgrass plant response rating (surinam grass; [3]): 0
B. signalgrass plant response rating (surinam grass; [4]): 6
B. signalgrass plant response rating (surinam grass; [12]): 0
Plant response rating, B. signalgrass (surinam grass; [7]): 0
Plant response rating, Bedstraw (bedstraw; [1]): 0
Plant response rating, Bedstraw (bedstraw; [8]): 0
Plant response rating, Bedstraw (bedstraw; [11]): 0
Plant response rating, Bedstraw (bedstraw; [7]): 0
Plant response rating, Crabgrass (crabgrass; [1]): 1
Plant response rating, Crabgrass (crabgrass; [8]): 4
Plant response rating, Crabgrass (crabgrass; [11]): 6
Crabgrass plant response rating (0 to 10 scale) (crabgrass; Preemergence, Rate 125 g/ha): 8
Crabgrass plant response rating (crabgrass; [3]): 9
Crabgrass plant response rating (crabgrass; [4]): 10
Crabgrass plant response rating (crabgrass; [12]): 0
Plant response rating, Crabgrass (crabgrass; [7]): 4

CC(C)N(C(=O)n1oc(=O)n(N2CCOCC2)c1=O)c1ccc(F)cc1 [Compound 385]
Plant response rating, Corn (corn; [1]): 0
Plant response rating, Corn (corn; [8]): 0
Plant response rating, Corn (corn; [11]): 0
Corn plant response rating (0 to 10 scale) (corn; Preemergence, Rate 125 g/ha): 0
Corn plant response rating (corn; [3]): 0
Corn plant response rating (corn; [4]): 0
Corn plant response rating (corn; [12]): 0
Plant response rating, Corn (corn; [7]): 0
Plant response rating, B. signalgrass (surinam grass; [1]): 3
Plant response rating, B. signalgrass (surinam grass; [8]): 6
Plant response rating, B. signalgrass (surinam grass; [11]): 0
B. signalgrass plant response rating (0 to 10 scale, 0 is no effect, 10 is complete control) (surinam grass; Preemergence, Rate 125 g/ha): 0
B. signalgrass plant response rating (surinam grass; [3]): 7
B. signalgrass plant response rating (surinam grass; [4]): 9
B. signalgrass plant response rating (surinam grass; [12]): 0
Plant response rating, B. signalgrass (surinam grass; [7]): 8
Plant response rating, Bedstraw (bedstraw; [8]): 0
Plant response rating, Bedstraw (bedstraw; [11]): 0
Plant response rating, Bedstraw (bedstraw; [7]): 3
Plant response rating, Crabgrass (crabgrass; [1]): 7
Plant response rating, Crabgrass (crabgrass; [8]): 9
Plant response rating, Crabgrass (crabgrass; [11]): 3
Crabgrass plant response rating (0 to 10 scale) (crabgrass; Preemergence, Rate 125 g/ha): 9
Crabgrass plant response rating (crabgrass; [3]): 9
Crabgrass plant response rating (crabgrass; [4]): 10
Crabgrass plant response rating (crabgrass; [12]): 6
Plant response rating, Crabgrass (crabgrass; [7]): 9

CC(C)N(C(=O)n1oc(=O)n(CC#N)c1=O)c1ccc(F)cc1 [Compound 395]
Plant response rating, Corn (corn; [1]): 0
Plant response rating, Corn (corn; [8]): 0
Corn plant response rating (corn; [13]): 0
Plant response rating, Corn (corn; [11]): 0
Plant response rating, Corn (corn; [14]): 0
Corn plant response rating (corn; [15]): 0
Corn plant response rating (corn; [16]): 0
Corn plant response rating (corn; [12]): 0
Plant response rating, B. signalgrass (surinam grass; [1]): 0
Plant response rating, B. signalgrass (surinam grass; [8]): 0
B. signalgrass plant response rating (surinam grass; [13]): 0
Plant response rating, B. signalgrass (surinam grass; [11]): 0
Plant response rating, B. signalgrass (surinam grass; [14]): 0
B. signalgrass plant response rating (surinam grass; [3]): 0
B. signalgrass plant response rating (surinam grass; [4]): 0
B. signalgrass plant response rating (surinam grass; [12]): 0
Plant response rating, Bedstraw (bedstraw; [1]): 0
Plant response rating, Bedstraw (bedstraw; [8]): 0
Bedstraw plant response rating (bedstraw; [13]): 4
Plant response rating, Bedstraw (bedstraw; [11]): 0
Plant response rating, Bedstraw (bedstraw; [14]): 0
Bedstraw plant response rating (bedstraw; [3]): 0
Bedstraw plant response rating (bedstraw; [16]): 0
Bedstraw plant response rating (bedstraw; [12]): 0
Plant response rating, Crabgrass (crabgrass; [1]): 2
Plant response rating, Crabgrass (crabgrass; [8]): 2
Crabgrass plant response rating (crabgrass; [13]): 5
Plant response rating, Crabgrass (crabgrass; [11]): 0
Plant response rating, Crabgrass (crabgrass; [14]): 0
Crabgrass plant response rating (crabgrass; [15]): 0
Crabgrass plant response rating (crabgrass; [16]): 2
Crabgrass plant response rating (crabgrass; [12]): 0
